Data reported in ChEMBL document CHEMBL5126527, “Emerging targeted protein degradation tools for innovative drug discovery: From classical PROTACs to the novel and beyond” (Eur J Med Chem, 2022).

Key:
[1] = target: E3 ubiquitin-protein ligase Mdm2 (Homo sapiens, UniProt Q00987); assay: Binding affinity to human MDM2 assessed as inhibition constant by competitive binding based fluorescence polarization analysis
A549 = assay: Antiproliferative activity against human A549 cells assessed as cell growth inhibition measured after 72 hrs by CCK-8 assay; format: functional, cell-based; settings: A549, 72 h
MOLM-14 = assay: Cytotoxicity against human MOLM-14 cells assessed as inhibition of cell growth incubated for 72 hrs by alamar blue assay; format: functional, cell-based; settings: MOLM-14, 72 h
[2] = target: Protein cereblon/Tyrosine-protein kinase BTK (Homo sapiens, UniProt Q06187+Q96SW2); assay: Protac activity at CRBN/BTK in human MOLM-14 cells assessed as induction of BTK degradation incubated for 24 hrs by Western blot analysis; format: cell-based
Sequence of Protein cereblon/Tyrosine-protein kinase BTK (Q06187 whole entry): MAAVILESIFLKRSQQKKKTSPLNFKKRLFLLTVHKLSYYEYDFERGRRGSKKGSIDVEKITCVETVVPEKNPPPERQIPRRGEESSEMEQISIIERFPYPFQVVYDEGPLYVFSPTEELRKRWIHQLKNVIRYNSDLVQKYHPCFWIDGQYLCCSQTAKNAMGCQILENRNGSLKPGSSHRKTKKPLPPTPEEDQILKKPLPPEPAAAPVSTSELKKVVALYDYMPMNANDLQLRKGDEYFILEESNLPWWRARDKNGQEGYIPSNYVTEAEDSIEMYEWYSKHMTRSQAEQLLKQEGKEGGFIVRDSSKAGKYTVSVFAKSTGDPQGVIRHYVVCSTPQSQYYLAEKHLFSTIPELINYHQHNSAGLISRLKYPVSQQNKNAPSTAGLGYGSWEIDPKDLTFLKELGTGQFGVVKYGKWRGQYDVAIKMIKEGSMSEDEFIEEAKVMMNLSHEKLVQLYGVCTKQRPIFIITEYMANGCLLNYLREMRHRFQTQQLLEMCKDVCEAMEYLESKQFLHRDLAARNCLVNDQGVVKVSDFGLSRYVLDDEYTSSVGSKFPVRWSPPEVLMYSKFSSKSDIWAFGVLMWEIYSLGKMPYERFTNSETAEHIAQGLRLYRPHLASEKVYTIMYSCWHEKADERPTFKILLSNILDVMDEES
Sequence of Protein cereblon/Tyrosine-protein kinase BTK (Q96SW2 whole entry): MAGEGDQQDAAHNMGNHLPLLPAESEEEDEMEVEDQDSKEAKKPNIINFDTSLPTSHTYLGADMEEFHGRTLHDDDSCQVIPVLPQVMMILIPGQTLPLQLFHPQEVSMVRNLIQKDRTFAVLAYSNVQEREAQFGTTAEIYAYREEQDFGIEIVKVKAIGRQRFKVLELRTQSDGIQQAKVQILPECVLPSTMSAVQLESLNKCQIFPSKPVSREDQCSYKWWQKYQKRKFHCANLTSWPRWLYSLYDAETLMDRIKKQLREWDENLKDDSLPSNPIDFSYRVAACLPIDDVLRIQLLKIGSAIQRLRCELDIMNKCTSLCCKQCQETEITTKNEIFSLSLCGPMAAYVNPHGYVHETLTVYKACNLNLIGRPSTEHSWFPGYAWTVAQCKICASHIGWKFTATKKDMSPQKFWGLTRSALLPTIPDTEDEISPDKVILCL

Sequence of E3 ubiquitin-protein ligase Mdm2 (Q00987 whole entry): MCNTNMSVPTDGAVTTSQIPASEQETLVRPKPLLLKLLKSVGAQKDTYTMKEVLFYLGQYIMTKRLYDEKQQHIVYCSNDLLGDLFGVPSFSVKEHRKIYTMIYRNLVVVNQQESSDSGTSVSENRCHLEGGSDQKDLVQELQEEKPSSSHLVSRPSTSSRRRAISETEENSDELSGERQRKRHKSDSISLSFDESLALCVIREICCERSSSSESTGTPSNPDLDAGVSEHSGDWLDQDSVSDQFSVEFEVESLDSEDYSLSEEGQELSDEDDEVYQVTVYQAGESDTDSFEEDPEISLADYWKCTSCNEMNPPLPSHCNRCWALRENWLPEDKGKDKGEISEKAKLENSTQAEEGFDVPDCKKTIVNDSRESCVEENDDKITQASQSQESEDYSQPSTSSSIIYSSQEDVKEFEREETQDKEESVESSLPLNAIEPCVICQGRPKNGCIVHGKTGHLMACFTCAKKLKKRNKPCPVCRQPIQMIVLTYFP

SMILES	Ki [1] [nM]	IC50 (A549) [nM]	IC50 (MOLM-14) [nM]	EC50 [2] [nM]
CCOc1cc(C(C)(C)C)ccc1C1=NC(c2ccc(Cl)cc2)C(c2ccc(Cl)cc2)N1C(=O)N1CCN(CC(=O)NCCOCCOCCOCCNC(=O)CN2CCN(C(=O)N3C(c4ccc(C(C)(C)C)cc4OCC)=NC(c4ccc(Cl)cc4)C3c3ccc(Cl)cc3)CC2=O)C(=O)C1 (centres undefined)	100	1000		
CN(CCCNC(=O)CNc1cccc2c1C(=O)N(C1CCC(=O)NC1=O)C2=O)C(C)(C)C=C(C#N)C(=O)N1CCC[C@@H](n2nc(-c3ccc(Oc4ccccc4)cc3)c3c(N)ncnc32)C1 (some centres undefined)			300	6.6
